Assays:
[1] = Octanol/water partition coefficient, logP of compound at pH 7.4; assay type: physicochemical
[2] = AUC (0 to infinitive) in Sprague-Dawley rat at 1 mg/kg, ip measured up to 24 hrs by LC-MS/MS analysis; assay type: ADME, organism-based; design: route intraperitoneal, dose 1 mg/kg, time <=24; conditions: in vivo
[3] = AUC (0 to infinitive) in Sprague-Dawley rat at 10 mg/kg, po measured up to 24 hrs by LC-MS/MS analysis; assay type: ADME, organism-based; design: route oral, dose 10 mg/kg, time <=24; conditions: in vivo
[4] = Tmax in Sprague-Dawley rat at 10 mg/kg, po measured up to 24 hrs by LC-MS/MS analysis; assay type: ADME, organism-based; conditions: in vivo
[5] = MRT in Sprague-Dawley rat at 1 mg/kg, ip measured up to 24 hrs by LC-MS/MS analysis; assay type: ADME, organism-based; conditions: in vivo
[6] = MRT in Sprague-Dawley rat at 10 mg/kg, po measured up to 24 hrs by LC-MS/MS analysis; assay type: ADME, organism-based; conditions: in vivo
[7] = Cmax in Sprague-Dawley rat at 10 mg/kg, po measured up to 24 hrs by LC-MS/MS analysis; assay type: ADME, organism-based; design: route oral, dose 10 mg/kg, time <=24; conditions: in vivo
[8] = Cmax in Sprague-Dawley rat at 1 mg/kg, ip measured up to 24 hrs by LC-MS/MS analysis; assay type: ADME, organism-based; design: route intraperitoneal, dose 1 mg/kg, time <=24; conditions: in vivo
[9] = Oral bioavailability in Sprague-Dawley rat at 10 mg/kg measured up to 24 hrs by LC-MS/MS analysis; assay type: ADME, organism-based; conditions: in vivo
[10] = Acute toxicity in ICR mouse assessed as mortality rate at 1500 mg/kg, po administered as single dose measured after 1 week relative to control; assay type: organism-based; conditions: in vivo, time 1 weeks, read-out: Activity

Structure (SMILES) | logD [1] | also measured
FC(F)(F)c1cccc(Nc2nc(Nc3ccc(-c4ccsc4)cn3)ncc2Cl)c1 | 2.03 | –
FC(F)(F)Oc1cccc(Nc2nc(Nc3ccccc3)ncc2Cl)c1 | 2.65 | –
CN1CCN(c2ccc(Nc3ncc(Cl)c(Nc4cccc(C(F)(F)F)c4)n3)nn2)CC1 | 1.26 | –
CCN1CCN(c2ccc(Nc3ncc(Cl)c(Nc4cccc(C(F)(F)F)c4)n3)nc2)CC1 | 2.18 | –
CN1CCN(c2ccc(Nc3ncc(Cl)c(Nc4cccc(C(F)(F)F)c4)n3)nc2)CC1 | 1.87 | AUC [2]: 249.2 ng·h/mL; AUC(0-inf) [3]: 158 ng·h/mL; Tmax [4]: 2 h; MRT [5]: 1.22 h; MRT [6]: 2.68 h; Cmax [7]: 83.5 ng/mL; Cmax [8]: 458 ng/mL; bioavailability [9]: 16.7%
CN1CCN(c2ncc(Nc3ncc(Cl)c(Nc4cccc(C(F)(F)F)c4)n3)cn2)CC1 | 1.89 | –
CN1CCN(c2ccc(Nc3ncc(Cl)c(Nc4cccc(C(F)(F)F)c4)n3)cc2)CC1 | 1.46 | –
FC(F)(F)c1cccc(Nc2nc(Nc3ccccc3)ncc2Cl)c1 | 2.46 | –
FC(F)(F)c1cccc(Nc2nc(Nc3ccccn3)ncc2Cl)c1 | 1.4 | –
CN(C)C1CCN(c2ccc(Nc3ncc(Cl)c(Nc4cccc(C(F)(F)F)c4)n3)nc2)CC1 | 2.01 | mortality at 168 h [10]: 70%
FC(F)(F)c1cccc(Nc2nc(Nc3ccc(N4CCNCC4)cn3)ncc2Cl)c1 | 1.25 | –
NC1CCN(c2ccc(Nc3ncc(Cl)c(Nc4cccc(C(F)(F)F)c4)n3)nc2)CC1 | 0.44 | –
CN1CCN(c2ccc(Nc3ncc(Cl)c(Nc4cccc(C(F)(F)F)c4)n3)cn2)CC1 | 1.61 | –
FC(F)(F)c1cccc(Nc2nc(Nc3cccnn3)ncc2Cl)c1 | 2.26 | –
FC(F)(F)c1cccc(Nc2nc(Nc3cncnc3)ncc2Cl)c1 | 2.01 | –
FC(F)(F)c1cccc(Nc2nc(Nc3cccnc3)ncc2Cl)c1 | 1.26 | –

Reference: ChEMBL document CHEMBL4828733, “Discovery and In Vivo Anti-inflammatory Activity Evaluation of a Novel Non-peptidyl Non-covalent Cathepsin C Inhibitor” (J Med Chem, 2021)
